Measured values as given in publication PMC11432330, “Novel Drug-like HsrA Inhibitors Exhibit Potent Narrow-Spectrum Antimicrobial Activities against Helicobacter pylori” (International Journal of Molecular Sciences, 2024).

Molecular target: C. jejuni response regulator CosR (Campylobacter jejuni, UniProt Q0PBF4)
Assay: Isothermal titration calorimetry (ITC) with CosR
Format: binding
Protocol: Molecular interactions of the selected ligands with proteins HsrA or CosR were studied by isothermal titration calorimetry (ITC), as previously described. Titrations were assessed in a high-sensitivity MicroCal Auto-iTC200 calorimeter (Malvern Panalytical, Malvern, UK). Experiments were carried out at 25 °C in freshly prepared buffer containing 50 mM Tris-HCl [pH 8], 150 mM NaCl, 10% glycerol, and 1% DMSO. A 20 µM solution of protein was located in the calorimetric cell. Then, a sequence of 19 injections of 2 µL volume each with a 200 µM solution of the corresponding ligand was programmed with a time spacing of 150 s, a stirring speed of 750 rpm, and a reference power of 10 µcal/s in the sample cell. Thermodynamic properties such as binding stoichiometry, dissociation constants, and binding enthalpies were calculated by nonlinear least-squares regression data analysis using Origin 7.0 software.

Sequence of C. jejuni response regulator CosR (Q0PBF4 entry or part of it): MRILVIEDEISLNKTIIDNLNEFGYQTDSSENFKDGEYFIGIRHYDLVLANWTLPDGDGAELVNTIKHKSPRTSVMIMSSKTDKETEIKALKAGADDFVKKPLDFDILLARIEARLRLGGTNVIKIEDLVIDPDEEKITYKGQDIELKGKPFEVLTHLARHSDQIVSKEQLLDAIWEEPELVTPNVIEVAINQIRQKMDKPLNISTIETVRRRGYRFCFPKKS

For `NC(=NOC(=O)Nc1ccc(Cl)cc1)c1csc([N+](=O)[O-])c1` [Ligand V, N′-{[(4-chloroanilino)carbonyl]}oxy-5-nitrothiophene-3-carboximidamide], the ΔG (absolute error 0.1) was -6.2 kcal/mol, the ΔH (absolute error 0.4) was -0.9 kcal/mol and the Kd (relative error 15%) was 26 µM.
